Results as given in US20260256822A1, “ENTRY-MODULATING AGENTS AND USES THEREFOR” (priority 2022, published 2026).
Values joined by “and” are separate entries in the source; they are usually repeats but may differ in a detail not shown here. Identical values can stand only once. Counter-ions that a name gives are not always drawn. Like-named read-outs stand apart in the source and are kept apart here.

What was measured:
PfCyRPA [1] = biological target: T1, PfCyRPA (Plasmodium falciparum, UniProt Q8IFM8); test: biochemical
Target sequence in this assay (Q8IFM8 29-362): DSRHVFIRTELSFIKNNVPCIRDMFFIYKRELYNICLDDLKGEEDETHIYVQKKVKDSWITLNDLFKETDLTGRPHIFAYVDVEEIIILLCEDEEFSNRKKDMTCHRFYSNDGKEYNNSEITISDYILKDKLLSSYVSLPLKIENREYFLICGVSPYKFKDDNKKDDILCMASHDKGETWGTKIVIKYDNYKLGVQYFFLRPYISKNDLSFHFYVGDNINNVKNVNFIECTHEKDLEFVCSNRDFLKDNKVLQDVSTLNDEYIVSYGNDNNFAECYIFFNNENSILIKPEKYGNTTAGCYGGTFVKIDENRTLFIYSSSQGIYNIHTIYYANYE

PfCyRPA [2] = biological target: T1, PfCyRPA; format: binding; details: compound injected first, then 2-6SLN; both at 1 μM
Target sequence in this assay (Q8IFM8 29-362): as above

P. falciparum 3D7 clone = test: In vitro blood stage parasite growth inhibition assay, [3H]-hypoxanthine incorporation, human red blood cells; format: cell-based, Plasmodium falciparum
PvCyRPA = PvCyRPA (Plasmodium vivax, UniProt A5K678, A187P/D259E/E126K/E159D/E86Q/G127E/G69A/H95N/K131E/K185E/K93E/Q142K/R122K/T90K); format: binding; details: Table 12, PvCyRPA
PfCyRPA [3] = biological target: T1, PfCyRPA; details: for affinity of interaction with PfCyRPA: SPR
Target sequence in this assay (Q8IFM8 29-362): as above

[4] = mice, 7 days post infection
Protocol: To determine the level of ZnPT in serum a methodology using two ZnPT binding proteins was developed.
(§1) Standard curves were run across the following concentrations: • ZnPT—0.61 nM to 10 μM • PT—61 nM to 1 mM • Zinc—0.61 μM to 10 mM

[5] = biological target: T2, New Delhi metallo-beta-lactamase 2 (NDM2) (Klebsiella pneumoniae, UniProt C7C422, P28A); details: read-out: NDM2 KD; Table 9
[6] = for Serum concentration of zinc pyrithione: human
Protocol: Participants were instructed to completely wet hair, measure out 20 mL of anti-dandruff shampoo using a measuring cup provided, pour shampoo onto the scalp and massage shampoo into the scalp, leave shampoo on for 5-10 minutes using the timer provided then completely rinse off shampoo. Blood and urine samples were also collected on day 3 (two days of shampoo use), day 4 (three days of shampoo use), day 5 (day after shampoo use stops) and day 10 (five days after shampoo use has stopped). Serum was separated from blood collected in SST II Advance serum separation tubes (BD) according to the manufacturer's instructions. Sera and urine were batched and stored at −80° C. within 4 hours of collection.
as §1

[7] = biological target: T2, New Delhi metallo-beta-lactamase 2 (NDM2); test: biochemical
PfCyRPA [8] = biological target: T1, PfCyRPA; details: SPR
Target sequence in this assay (Q8IFM8 26-362): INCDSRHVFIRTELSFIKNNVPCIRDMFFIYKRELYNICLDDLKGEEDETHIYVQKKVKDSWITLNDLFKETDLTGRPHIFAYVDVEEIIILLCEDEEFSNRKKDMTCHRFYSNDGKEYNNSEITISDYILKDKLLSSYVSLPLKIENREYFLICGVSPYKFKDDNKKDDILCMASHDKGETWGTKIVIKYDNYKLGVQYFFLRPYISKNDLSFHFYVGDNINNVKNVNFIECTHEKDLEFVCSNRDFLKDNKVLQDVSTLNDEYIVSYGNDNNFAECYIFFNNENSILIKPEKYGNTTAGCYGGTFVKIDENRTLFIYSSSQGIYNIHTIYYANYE
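Wherever Serum concentration of zinc pyrithione is given: human volunteers used 1% ZPT shampoo twice daily for three days from day 2, serum sampled on days 1 (pre-use), 3, 4, 5 and 10.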
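Wherever day of the highest serum concentration of ZnPT is given: human volunteers used 1% ZPT shampoo twice daily for three days from day 2, serum sampled on days 1 (pre-use), 3, 4, 5 and 10.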

T2 sequence (C7C422 29-270 P28A (numbered from the first residue shown)): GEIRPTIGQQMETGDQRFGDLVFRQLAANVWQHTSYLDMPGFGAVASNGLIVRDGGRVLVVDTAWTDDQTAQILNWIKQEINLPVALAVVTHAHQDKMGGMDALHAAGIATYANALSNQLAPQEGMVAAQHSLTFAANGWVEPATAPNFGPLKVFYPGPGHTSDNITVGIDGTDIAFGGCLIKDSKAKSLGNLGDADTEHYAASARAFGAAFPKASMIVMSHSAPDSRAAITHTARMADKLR

Molecule: CCC(C)(C)C(=O)O[C@H]1C[C@@H](C)C=C2C=C[C@H](C)[C@H](CC[C@@H]3C[C@@H](O)CC(=O)O3)[C@H]21 [Simvastatin]
- Kd (PfCyRPA [1]): 31.4 ± 2.24 nM

Molecule: Zinc Pyrithione
- Blocking of 2-6SLN binding (PfCyRPA [2]): 98.2% ± 3.4
- EC50 in RBC infection (P. falciparum 3D7 clone; Table 6, human RBC, P. falciparum 3D7, listed as ZnPT): 163 ng/mL
- EC50 (P. falciparum 3D7 clone; Table 6, human RBC, P. falciparum 3D7, read-out: EC50 in RBC infection): 513 nM
- concentration that completely inhibits P. falciparum infection of human RBCs (P. falciparum 3D7 clone; human RBC, listed as ZnPT): 500 ng/mL and 1.57 μM
- Kd (PvCyRPA): 50.8 ± 2.91 nM
- Kd (PfCyRPA [3]): 0.000833 ± 0.000192 µM
- affinity of interaction with PfCyRPA (PfCyRPA [3]): high affinity interaction
- Kd (PfCyRPA [3]; Table 3, PfCyRPA): 0.000833 µM
- Kd (PfCyRPA [3]; read-out: CyRPA KD, Table 9): 0.000833 µM
- Serum concentration at the point of testing [4]: < 163 ng/mL
- Kd [5]: 0.0385 µM
- Serum concentration of zinc pyrithione ([6]; Serum 1, Day 1 (before shampoo use)): 0.03 μM ±
- Serum concentration of zinc pyrithione ([6]; Serum 1, Day 3, topical 1% ZPT shampoo): 0.04 μM ±
- Serum concentration of zinc pyrithione ([6]; Serum 1, Day 4, topical 1% ZPT shampoo): 0.66 μM ±
- Serum concentration of zinc pyrithione ([6]; Serum 1, Day 5, topical 1% ZPT shampoo): 2.7 μM ±
- Serum concentration of zinc pyrithione ([6]; Serum 1, Day 10, topical 1% ZPT shampoo): −0.07 μM ±
- Serum concentration of zinc pyrithione ([6]; Serum 2, Day 1 (before shampoo use)): 0.02 μM ±
- Serum concentration of zinc pyrithione ([6]; Serum 2, Day 3, topical 1% ZPT shampoo): 0.88 μM ±
- Serum concentration of zinc pyrithione ([6]; Serum 2, Day 4, topical 1% ZPT shampoo): 1.8 μM ±
- Serum concentration of zinc pyrithione ([6]; Serum 2, Day 5, topical 1% ZPT shampoo): 4.3 μM ±
- Serum concentration of zinc pyrithione ([6]; Serum 2, Day 10, topical 1% ZPT shampoo): 0.33 μM ±
- Serum concentration of zinc pyrithione ([6]; Serum 3, Day 1 (before shampoo use)): 0.08 μM ±
- Serum concentration of zinc pyrithione ([6]; Serum 3, Day 3, topical 1% ZPT shampoo): 0.24 μM ±
- Serum concentration of zinc pyrithione ([6]; Serum 3, Day 4, topical 1% ZPT shampoo): 0.84 μM ±
- Serum concentration of zinc pyrithione ([6]; Serum 3, Day 5, topical 1% ZPT shampoo): 1.6 μM ±
- Serum concentration of zinc pyrithione ([6]; Serum 3, Day 10, topical 1% ZPT shampoo): 1.0 μM ±
- Serum concentration of zinc pyrithione ([6]; Serum 4, Day 1 (before shampoo use)): 0.03 μM ±
- Serum concentration of zinc pyrithione ([6]; Serum 4, Day 3, topical 1% ZPT shampoo): 0.81 μM ±
- Serum concentration of zinc pyrithione ([6]; Serum 4, Day 4, topical 1% ZPT shampoo): 1.0 μM ±
- Serum concentration of zinc pyrithione ([6]; Serum 4, Day 5, topical 1% ZPT shampoo): 1.5 μM ±
- Serum concentration of zinc pyrithione ([6]; Serum 4, Day 10, topical 1% ZPT shampoo): 1.2 μM ±
- Serum concentration of zinc pyrithione ([6]; Serum 5, Day 1 (before shampoo use)): 0.01 μM ±
- Serum concentration of zinc pyrithione ([6]; Serum 5, Day 3, topical 1% ZPT shampoo): 0.02 μM ±
- Serum concentration of zinc pyrithione ([6]; Serum 5, Day 4, topical 1% ZPT shampoo): 0.10 μM ±
- Serum concentration of zinc pyrithione ([6]; Serum 5, Day 5, topical 1% ZPT shampoo): 0.22 μM ±
- Serum concentration of zinc pyrithione ([6]; Serum 5, Day 10, topical 1% ZPT shampoo): 0.02 μM ±
- Serum concentration of zinc pyrithione ([6]; Serum 6, Day 1 (before shampoo use)): 0.001 μM ±
- Serum concentration of zinc pyrithione ([6]; Serum 6, Day 3, topical 1% ZPT shampoo): 0.10 μM ±
- Serum concentration of zinc pyrithione ([6]; Serum 6, Day 4, topical 1% ZPT shampoo): 0.21 μM ±
- Serum concentration of zinc pyrithione ([6]; Serum 6, Day 5, topical 1% ZPT shampoo): 0.38 μM ±
- Serum concentration of zinc pyrithione ([6]; Serum 6, Day 10, topical 1% ZPT shampoo): 0.007 μM ±
- Serum concentration of zinc pyrithione ([6]; Serum 7, Day 1 (before shampoo use)): 0.01 μM ±
- Serum concentration of zinc pyrithione ([6]; Serum 7, Day 3, topical 1% ZPT shampoo): 0.84 μM ±
- Serum concentration of zinc pyrithione ([6]; Serum 7, Day 4, topical 1% ZPT shampoo): 0.96 μM ±
- Serum concentration of zinc pyrithione ([6]; Serum 7, Day 5, topical 1% ZPT shampoo): 1.5 μM ±
- Serum concentration of zinc pyrithione ([6]; Serum 7, Day 10, topical 1% ZPT shampoo): 1.2 μM ±
- Serum concentration of zinc pyrithione ([6]; Serum 8, Day 1 (before shampoo use)): 0.02 μM ±
- Serum concentration of zinc pyrithione ([6]; Serum 8, Day 3, topical 1% ZPT shampoo): 0.02 μM ±
- Serum concentration of zinc pyrithione ([6]; Serum 8, Day 4, topical 1% ZPT shampoo): 0.09 μM ±
- Serum concentration of zinc pyrithione ([6]; Serum 8, Day 5, topical 1% ZPT shampoo): 0.26 μM ±
- Serum concentration of zinc pyrithione ([6]; Serum 8, Day 10, topical 1% ZPT shampoo): 0.11 μM ±
- Serum concentration of zinc pyrithione ([6]; Serum 9, Day 1 (before shampoo use)): 0.04 μM ±
- Serum concentration of zinc pyrithione ([6]; Serum 9, Day 3, topical 1% ZPT shampoo): 0.22 μM ±
- Serum concentration of zinc pyrithione ([6]; Serum 9, Day 4, topical 1% ZPT shampoo): 0.30 μM ±
- Serum concentration of zinc pyrithione ([6]; Serum 9, Day 5, topical 1% ZPT shampoo): 0.49 μM ±
- Serum concentration of zinc pyrithione ([6]; Serum 9, Day 10, topical 1% ZPT shampoo): 0.14 μM ±
- Serum concentration of zinc pyrithione ([6]; Serum 10, Day 1 (before shampoo use)): 0.004 μM ±
- Serum concentration of zinc pyrithione ([6]; Serum 10, Day 3, topical 1% ZPT shampoo): 0.15 μM ±
- Serum concentration of zinc pyrithione ([6]; Serum 10, Day 4, topical 1% ZPT shampoo): 1.1 μM ±
- Serum concentration of zinc pyrithione ([6]; Serum 10, Day 5, topical 1% ZPT shampoo): 1.5 μM ±
- Serum concentration of zinc pyrithione ([6]; Serum 10, Day 10, topical 1% ZPT shampoo): 0.98 μM ±
- day of the highest serum concentration of ZnPT ([6]; day after three consecutive days of topical treatment): 5 days

Molecule: On1ccccc1=S [1-Hydroxy-2(1H)-pyridinethione]
- Kd (PfCyRPA [1]): 169000 nM
- Kd [7]: 894 µM

Molecule: Abamectin
- Blocking of 2-6SLN binding (PfCyRPA [2]): 91.4% ± 6.8
- EC50 in RBC infection (P. falciparum 3D7 clone; Table 7, human RBC, P. falciparum 3D7): 888 ng/mL
- EC50 (P. falciparum 3D7 clone; Table 7, human RBC, P. falciparum 3D7, read-out: EC50 in RBC infection): 1000 nM
- concentration that completely inhibits P. falciparum infection of human RBCs (P. falciparum 3D7 clone; human RBC): 4000 ng/mL and 4.50 μM
- Kd (PvCyRPA): 1140 ± 230 nM
- Kd (PfCyRPA [3]): 0.0191 ± 0.00117 µM

Molecule: Milbemycin
- Kd (PfCyRPA [3]): 0.967 ± 0.057 µM

Molecule: CCC(C)[C@H]1O[C@]2(CC[C@@H]1C)C[C@@H]1C[C@@H](C/C=C(\C)[C@@H](O[C@H]3C[C@H](OC)[C@@H](O[C@H]4C[C@@H](OC)[C@H](O)[C@@H](C)O4)[C@H](C)O3)[C@@H](C)/C=C/C=C3\CO[C@@H]4[C@H](O)C(C)=C[C@@H](C(=O)O1)[C@]34O)O2 (some centres unmarked) [Ivermectin]
- Blocking of 2-6SLN binding (PfCyRPA [2]): 67.3% ± 4.9
- EC50 (P. falciparum 3D7 clone; Plasmodium falciparum, 3D7, Erythrocyte, human RBC, Example 6): 0.534 µg/mL
- concentration that completely inhibits P. falciparum infection of human RBCs (P. falciparum 3D7 clone; human RBC): 2000 ng/mL and 2.29 μM
- EC50 (P. falciparum 3D7 clone; read-out: EC50 in RBC infection, Table 7, human RBC, P. falciparum 3D7): 610 nM
- affinity of interaction with PfCyRPA (PfCyRPA [3]): high affinity interaction
- Kd (PfCyRPA [1]): 93.2 ± 14 nM

Molecule: CO/N=C1\C[C@]2(C[C@@H]3C[C@@H](C/C=C(\C)C[C@@H](C)/C=C/C=C4\CO[C@@H]5[C@H](O)C(C)=C[C@@H](C(=O)O3)[C@]45O)O2)O[C@H](/C(C)=C/C(C)C)[C@H]1C [Moxidectin]
- Kd (PfCyRPA [1]): 13400 ± 521 nM

Molecule: CO[C@H]1C[C@H](O[C@H]2[C@H](C)O[C@@H](O[C@@H]3/C(C)=C/C[C@@H]4C[C@@H](C[C@]5(C=C[C@H](C)[C@@H](C6CCCCC6)O5)O4)OC(=O)[C@@H]4C=C(C)[C@@H](O)[C@H]5OC/C(=C\C=C\[C@@H]3C)[C@]54O)C[C@@H]2OC)O[C@@H](C)[C@@H]1O [Doramectin]
- Kd (PfCyRPA [3]): 7.04 ± 2.03 µM

Molecule: CC(O)C(=O)O.CCOc1ccc2nc3cc(N)ccc3c(N)c2c1 (racemic) [RIVANOL, 6,9-Diamino-2-ethoxyacridine-DL-lactate monohydrate]
- Blocking of 2-6SLN binding (PfCyRPA [2]): 87.6% ± 9.7
- EC50 (P. falciparum 3D7 clone; Plasmodium falciparum, 3D7, Erythrocyte, Table 8, human RBC, P. falciparum 3D7, read-out: EC50 in RBC infection): 0.019 µg/mL and 55.3 nM
- concentration that completely inhibits P. falciparum infection of human RBCs (P. falciparum 3D7 clone; human RBC, monohydrate): 100 ng/mL and 291.1 nM
- Kd (PfCyRPA [1]): 2.46 ± 0.41 nM

Molecule: COc1ccc(CCC(=O)c2c(O)cc(O[C@@H]3O[C@H](CO)[C@@H](O)[C@H](O)[C@H]3O[C@@H]3O[C@@H](C)[C@H](O)[C@@H](O)[C@H]3O)cc2O)cc1O [Neohesperidin dihydrochalcone]
- Kd (PfCyRPA [1]): 24.6 ± 1.45 nM

Molecule: O=C1CC2(CCCC2)CC(=O)N1CCCCN1CCN(c2ncccn2)CC1 [Buspirone hydrochloride]
- Blocking of 2-6SLN binding (PfCyRPA [2]): 77.4% ± 8.2
- Kd (PfCyRPA [1]): 33.6 ± 4.31 nM

Molecule: Neu5Ac-α-(2-6)-Gal-β-(1-4)-GlcNAc [α2-6-SLN-Ac]
- glycan ligand affinity for PfCyRPA (PfCyRPA [8]): highest affinity ligand

Molecule: O=S(=O)([O-])[O-].[Zn+2] [Zinc, Zinc sulfate]
- Kd (PfCyRPA [3]; Table 3, PfCyRPA): 546 µM
- Kd (PfCyRPA [3]; read-out: CyRPA KD, Table 9): 546 µM
- Kd [5]: 317 µM

Molecule: [O-][n+]1ccccc1S [Sodium Pyrithione]
- Kd (PfCyRPA [3]; Table 3, PfCyRPA): 122 µM
- Kd (PfCyRPA [3]; read-out: CyRPA KD, Table 9): 122 µM
- Kd [5]: 789 µM

Molecule: Emamectin
- Kd (PfCyRPA [3]): > 100 µM
